In BindingDB's records for doi:10.1016/0014-5793(95)01389-x (Max-Planck-Institut, 1995) one finds Ki data, which are given here for four compounds.

One may read the Ki as a measure of affinity in units of concentration, obtained from inhibition or displacement.

The assay deals with 5-hydroxytryptamine receptor 5A (Mus musculus, UniProt P30966).
5-hydroxytryptamine receptor 5A, sequence (P30966 whole entry): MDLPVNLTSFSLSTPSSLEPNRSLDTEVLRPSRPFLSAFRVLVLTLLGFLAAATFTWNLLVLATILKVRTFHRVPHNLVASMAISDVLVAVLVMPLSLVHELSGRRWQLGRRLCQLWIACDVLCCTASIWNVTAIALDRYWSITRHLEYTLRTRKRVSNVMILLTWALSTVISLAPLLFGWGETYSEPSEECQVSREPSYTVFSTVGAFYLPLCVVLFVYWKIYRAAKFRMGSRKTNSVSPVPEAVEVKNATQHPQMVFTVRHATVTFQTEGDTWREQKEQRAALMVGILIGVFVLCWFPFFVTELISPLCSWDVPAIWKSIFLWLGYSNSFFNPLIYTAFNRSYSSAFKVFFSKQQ
Consider `CC[C@@H](CO)NC(=O)[C@@H]1C=C2c3cccc4c3c(cn4C)C[C@H]2N(C)C1`, for which the Ki was found to be 500 nM. Consider `CN1C[C@H](C(=O)N[C@]2(C)O[C@@]3(O)[C@@H]4CCCN4C(=O)[C@H](Cc4ccccc4)N3C2=O)C=C2c3cccc4[nH]cc(c34)C[C@H]21` [12'-hydroxy-2'-methyl-5'alpha-(phenylmethyl)ergotaman-3',6',18-trione], for which the affinity, expressed as Ki, was 38 nM. Consider `CN(C)CCc1c[nH]c2ccc(O)cc12` [3-[2-(dimethylamino)ethyl]indol-5-ol], for which affinity was put at a Ki of 2900 nM. For the compound `CN1CC(C(=O)O)C=C2c3cccc4[nH]cc(c34)CC21` (centres undefined) [NSC_622688], the Ki is 2000 nM.
